Data set [1] has as its target GAL4 DBD-CfEcR(DEF)/VP16AD-MmRXRE (Choristoneura fumiferana, UniProt O77240). Description: 13B3 Assay (CHO stable cell line, luciferase reporter). As to conditions: for Fold Induction, 13B3 Assay, 3.3 uM: 3.3 uM ligand; for Fold Induction, 13B3 Assay, 3.3 uM / Fold Induction, 13B3 Assay, 33 uM: RLU ligand treated / RLU DMSO treated cells; for Fold Induction, 13B3 Assay, 3.3 uM / Fold Induction, 13B3 Assay, 33 uM / EC50: average of two wells; for Fold Induction, 13B3 Assay, 33 uM: 33 uM ligand; for 13B3 assay Rel Max FI: maximum fold induction at any concentration relative to that of GS-E ligand, CHO 13B3 cells; for EC50: read-out: 13B3 EC50, CHO 13B3 stable cell line, luciferase reporter, 48 h. In a few lines:
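CHO 13B3 clone stably expressing GAL4 DBD–CfEcR(DEF) and VP16AD–MmRXR(DE) with GAL4 RE–luciferase reporter; cells plated 24 h at 37 °C, then treated with ligands (DMSO stocks diluted 300-fold), 8 concentrations 33–0.01 μM.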
A general note: In a reporter assay the amount or activity of a reporter protein is the signal.

Data set [2] deals with GAL4 DBD (1-147)-CfEcR(DEF)/VP16AD-βRXREF-LmUSPEF (Choristoneura fumiferana, UniProt O77240). Description: cell-based. Particulars: for Fold Induction, 27-63 Assay, 3.3 uM: 3.3 uM ligand; for Fold Induction, 27-63 Assay, 3.3 uM / Fold Induction, 27-63 Assay, 33 uM: RLU ligand treated / RLU DMSO treated cells; for Fold Induction, 27-63 Assay, 3.3 uM / Fold Induction, 27-63 Assay, 33 uM / EC50: average of two wells; for Fold Induction, 27-63 Assay, 33 uM: 33 uM ligand; for 27-63 assay Rel Max FI: maximum fold induction at any concentration relative to that of GS-E ligand, CHO 27-63 cells; for EC50: read-out: 27-63 assay EC50, CHO 27-63 stable cell line, luciferase reporter.

Structures are written as SMILES.

`Cc1cc(C)cc(C(=O)N(NC(=O)c2ccc3c(c2)OC(C)O3)C(C)(C)C)c1` (stereo not shown) [RG-101511]: in data set [1], the “Fold Induction, 13B3 Assay, 3.3 uM” value worked out at 1912; the “Fold Induction, 13B3 Assay, 33 uM” value turned out to be 744; the “13B3 assay Rel Max FI” value is reported as 0.811; the EC50 amounted to 0.794 µM. Moreover, in data set [2], the “Fold Induction, 27-63 Assay, 3.3 uM” value is 1421; the “Fold Induction, 27-63 Assay, 33 uM” value turned out to be 1207; the “27-63 assay Rel Max FI” value amounted to 0.762; the EC50 turned out to be 0.714 µM.
In the case of `COc1cccc(C(=O)NN(C(=O)c2cc(Cl)cc(Br)c2)C(C)(C)C)c1C` [RG-101408], the “Fold Induction, 13B3 Assay, 33 uM” value in data set [1] is listed as 326. In data set [2], the “Fold Induction, 27-63 Assay, 3.3 uM” value was 2445; the “Fold Induction, 27-63 Assay, 33 uM” value came out at 1886; the “27-63 assay Rel Max FI” value is recorded as 1.185; the EC50 is 0.336 µM.
Consider `COCc1c(OC)cccc1C(=O)NN(C(=O)c1cc(C)cc(C)c1)C(C)(C)C` [RG-115117], for which, in data set [1], the “Fold Induction, 13B3 Assay, 3.3 uM” value stood at 1; the “13B3 assay Rel Max FI” value stood at 0; the EC50 is over 50 µM. For the same molecule, the “Fold Induction, 27-63 Assay, 33 uM” value in data set [2] stood at 221.
Regarding `COc1cc(C(=O)N(NC(=O)c2cccc(OC)c2C)C(C)(C)C)ccc1C` [RG-100768], the “Fold Induction, 13B3 Assay, 33 uM” value in data set [1] is recorded as 709. Besides, in data set [2], the “Fold Induction, 27-63 Assay, 3.3 uM” value was found to be 1738; the “Fold Induction, 27-63 Assay, 33 uM” value was found to be 1852; the “27-63 assay Rel Max FI” value is 1.039; the EC50 amounted to 0.333 µM.
On to `CCc1ccc(C(=O)NN(C(=O)c2cc(C)cc(Cl)c2)C(C)(C)C)cc1` [RG-101774], for which, in data set [1], the “Fold Induction, 13B3 Assay, 3.3 uM” value was 987; the “Fold Induction, 13B3 Assay, 33 uM” value came to 526; the “13B3 assay Rel Max FI” value was determined as 0.657; the EC50 was 0.327 µM. In addition, in data set [2], the “Fold Induction, 27-63 Assay, 3.3 uM” value was found to be 1807; the “Fold Induction, 27-63 Assay, 33 uM” value worked out at 1359; the “27-63 assay Rel Max FI” value stood at 0.795; the EC50 came to 0.359 µM.
With `COc1ccccc1C(=O)N(NC(=O)c1ccc2c(c1C)OCOC2)C(C)(C)C` [RG-100216], the “Fold Induction, 13B3 Assay, 33 uM” value in data set [1] stood at 8037. Moreover, in data set [2], the “Fold Induction, 27-63 Assay, 3.3 uM” value was 53; the “Fold Induction, 27-63 Assay, 33 uM” value was determined as 1312; the “27-63 assay Rel Max FI” value amounted to 0.685; the EC50 was determined as 6.97 µM.
For `Cc1cc(C)cc(C(=O)N(NC(=O)c2ccc3c(c2)COCO3)C(C)(C)C)c1` [RG-101016], in that order: 4693, 308, 1347, 0.703 and 4.2 µM.
The corresponding values for `CCc1c(OC)cccc1C(=O)NN(C(=O)c1cc(OC)cc(OC)c1)C(C)(C)C` [RG-100778] are 2344, 2159, 2312, 1.342 and 0.678 µM.
For `COc1cccc(C(=O)NN(C(=O)c2cccnc2Cl)C(C)(C)C)c1C` [RG-100127], in that order: 365, 49, 1239, 0.689 and 6.7 µM.
In the case of `CCc1ccc(C(=O)NN(C(=O)c2cc(C)cc(C)c2)C(C)(C)C)cc1Cl` [RG-101864], in data set [1], the “Fold Induction, 13B3 Assay, 3.3 uM” value stood at 5959; the “Fold Induction, 13B3 Assay, 33 uM” value came out at 349; the “13B3 assay Rel Max FI” value worked out at 0.460; the EC50 was found to be 0.288 µM. Besides, in data set [2], the “Fold Induction, 27-63 Assay, 3.3 uM” value was found to be 1807; the “Fold Induction, 27-63 Assay, 33 uM” value is 1464; the “27-63 assay Rel Max FI” value turned out to be 0.750; the EC50 came to 0.343 µM.
As for `COc1cccc(C(=O)NN(C(=O)c2ccc(Cl)cc2F)C(C)(C)C)c1C` [RG-100929], the “Fold Induction, 13B3 Assay, 33 uM” value in data set [1] worked out at 359. For the same molecule, in data set [2], the “Fold Induction, 27-63 Assay, 3.3 uM” value was 1080; the “Fold Induction, 27-63 Assay, 33 uM” value was 988; the “27-63 assay Rel Max FI” value was 0.770; the EC50 was 1.05 µM.
As to `CCc1cccc(C(=O)NN(C(=O)c2cc(C)cc(C)c2)C(C)(C)C)c1C` [RG-101691], in data set [1], the “Fold Induction, 13B3 Assay, 3.3 uM” value turned out to be 5245; the “Fold Induction, 13B3 Assay, 33 uM” value amounted to 630; the “13B3 assay Rel Max FI” value amounted to 0.918; the EC50 is 0.406 µM. For the same molecule, in data set [2], the “Fold Induction, 27-63 Assay, 3.3 uM” value was determined as 2249; the “Fold Induction, 27-63 Assay, 33 uM” value worked out at 2073; the “27-63 assay Rel Max FI” value was 0.969; the EC50 was found to be 0.25 µM.
For `Cc1cc(C)cc(C(=O)N(NC(=O)c2ccc3c(c2)CCCC3)C(C)(C)C)c1` [RG-101887], in data set [1], the “Fold Induction, 13B3 Assay, 3.3 uM” value stood at 2462; the “Fold Induction, 13B3 Assay, 33 uM” value stood at 542; the “13B3 assay Rel Max FI” value was determined as 0.579; the EC50 was found to be 0.861 µM. For the same molecule, in data set [2], the “Fold Induction, 27-63 Assay, 3.3 uM” value is 1142; the “Fold Induction, 27-63 Assay, 33 uM” value is given as 1107; the “27-63 assay Rel Max FI” value came out at 0.675; the EC50 is 0.351 µM.

The term EC50 denotes the concentration that produces a half-maximal response.

Values taken from patent US9102648B1, “Bioavailable diacylhydrazine ligands for modulating the expression of exogenous genes via an ecdysone receptor complex” (Intrexon Corporation, priority 2003, dated 2015).
